# Data from patent US8901133B2, “Heterocyclic compounds and uses thereof” (Infinity Pharmaceuticals, Inc., priority 2010, dated 2014).
# Experiments:
# [1] = biological target: T1, PI3Kβ (Homo sapiens, UniProt P42338); assay: PI3 Kinase HTRF assay, PI3Kβ; assay type: biochemical; details: 10 μM PIP2, 10 μM ATP; read-out: PI3K β IC50
# T1 construct: purchased Millipore Corporation 14-603-K
# Procedure, shortened: (§1)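 Recombinant human PI3K isoform converts 10 μM PIP2 to PIP3 with 10 μM ATP, 1 h at room temperature after 15 min compound preincubation; 2% DMSO. PIP3 read by HTRF competition with biotin-PIP3/GST-GRP1 PH domain. IC50 from 12-point curve, 20 μM to 0.1 nM, nonlinear regression.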
# [2] = system: Balb/c splenic B cells; assay: B cell activation and proliferation assay (Alamar Blue); assay type: cell-based; details: Mus musculus, read-out: B cell prolif. IC50
# Procedure, shortened: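 Purified cells (50,000/well, RPMI + 10% FBS) were preincubated 30 min at 37 °C with compound (0.2% DMSO final). Stimulation was with a cocktail containing either 10 ug/ml LPS or 5 ug/ml anti-mouse IgM F(ab′)2 plus 2 ng/ml mouse IL4, for 72 h. Viability by 5 h Alamar Blue reduction (560Ex/590Em); IC50 or EC50 fitted.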
# [3] = biological target: T2, PI3Kδ (Homo sapiens, UniProt O00329); assay: PI3 Kinase HTRF assay, PI3Kδ; assay type: biochemical; details: 10 μM PIP2, 10 μM ATP; read-out: PI3K δ IC50
# T2 construct: purchased Millipore Corporation 14-604-K
# T2 sequence (O00329 whole entry): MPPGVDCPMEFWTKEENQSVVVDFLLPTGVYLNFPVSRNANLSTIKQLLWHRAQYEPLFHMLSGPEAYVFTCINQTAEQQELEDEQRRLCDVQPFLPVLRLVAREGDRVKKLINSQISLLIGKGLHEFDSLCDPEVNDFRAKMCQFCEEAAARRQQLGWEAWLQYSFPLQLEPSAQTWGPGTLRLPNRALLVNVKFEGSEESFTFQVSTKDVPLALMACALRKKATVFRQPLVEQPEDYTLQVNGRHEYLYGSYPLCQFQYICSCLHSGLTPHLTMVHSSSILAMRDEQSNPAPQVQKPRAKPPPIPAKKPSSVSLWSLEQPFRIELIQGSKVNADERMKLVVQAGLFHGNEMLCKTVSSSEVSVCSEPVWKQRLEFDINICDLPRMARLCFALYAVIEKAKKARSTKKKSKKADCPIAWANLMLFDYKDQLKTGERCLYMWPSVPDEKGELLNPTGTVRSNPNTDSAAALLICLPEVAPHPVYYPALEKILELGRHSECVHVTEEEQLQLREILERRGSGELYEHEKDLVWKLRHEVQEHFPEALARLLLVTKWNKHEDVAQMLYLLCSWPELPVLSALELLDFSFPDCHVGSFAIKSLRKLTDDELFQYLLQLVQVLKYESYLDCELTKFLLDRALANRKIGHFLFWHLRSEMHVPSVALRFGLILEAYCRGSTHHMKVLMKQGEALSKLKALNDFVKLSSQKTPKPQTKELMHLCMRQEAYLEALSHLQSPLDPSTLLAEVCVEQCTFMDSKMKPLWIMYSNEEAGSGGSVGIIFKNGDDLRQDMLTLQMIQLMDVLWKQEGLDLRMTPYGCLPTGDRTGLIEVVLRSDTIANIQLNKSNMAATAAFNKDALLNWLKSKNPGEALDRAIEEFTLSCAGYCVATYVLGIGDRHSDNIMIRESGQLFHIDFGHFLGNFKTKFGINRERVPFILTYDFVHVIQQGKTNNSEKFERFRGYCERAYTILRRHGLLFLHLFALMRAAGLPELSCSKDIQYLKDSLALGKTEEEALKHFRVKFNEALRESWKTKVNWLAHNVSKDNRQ
# T2 sequence (P27986 whole entry partner): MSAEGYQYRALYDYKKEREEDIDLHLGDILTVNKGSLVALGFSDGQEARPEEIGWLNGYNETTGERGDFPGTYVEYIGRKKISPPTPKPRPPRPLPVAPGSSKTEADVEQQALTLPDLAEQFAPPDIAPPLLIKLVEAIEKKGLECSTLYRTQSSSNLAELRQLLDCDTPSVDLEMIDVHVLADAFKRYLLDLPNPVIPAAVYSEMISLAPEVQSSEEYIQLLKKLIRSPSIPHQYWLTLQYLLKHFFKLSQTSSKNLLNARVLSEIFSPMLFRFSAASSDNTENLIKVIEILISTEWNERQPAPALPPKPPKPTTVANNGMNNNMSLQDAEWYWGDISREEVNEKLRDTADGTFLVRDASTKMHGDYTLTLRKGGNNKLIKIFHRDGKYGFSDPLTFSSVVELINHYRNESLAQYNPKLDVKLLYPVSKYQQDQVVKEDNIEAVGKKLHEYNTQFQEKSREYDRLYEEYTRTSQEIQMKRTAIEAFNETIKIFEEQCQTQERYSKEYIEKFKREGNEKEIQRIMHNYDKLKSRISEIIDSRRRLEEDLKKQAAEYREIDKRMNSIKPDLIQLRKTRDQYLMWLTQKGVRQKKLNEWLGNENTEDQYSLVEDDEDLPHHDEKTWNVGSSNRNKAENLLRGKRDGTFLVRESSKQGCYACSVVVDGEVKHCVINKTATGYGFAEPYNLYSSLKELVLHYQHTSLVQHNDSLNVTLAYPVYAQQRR
# Procedure, shortened: as §1
# [4] = biological target: T3, PI3Kγ (Homo sapiens, UniProt P48736); assay: PI3 Kinase HTRF assay, PI3Kγ; assay type: biochemical; details: 10 μM PIP2, 10 μM ATP; read-out: PI3K γ IC50
# T3 construct: purchased Millipore Corporation 14-558-K
# T3 sequence (P48736 whole entry): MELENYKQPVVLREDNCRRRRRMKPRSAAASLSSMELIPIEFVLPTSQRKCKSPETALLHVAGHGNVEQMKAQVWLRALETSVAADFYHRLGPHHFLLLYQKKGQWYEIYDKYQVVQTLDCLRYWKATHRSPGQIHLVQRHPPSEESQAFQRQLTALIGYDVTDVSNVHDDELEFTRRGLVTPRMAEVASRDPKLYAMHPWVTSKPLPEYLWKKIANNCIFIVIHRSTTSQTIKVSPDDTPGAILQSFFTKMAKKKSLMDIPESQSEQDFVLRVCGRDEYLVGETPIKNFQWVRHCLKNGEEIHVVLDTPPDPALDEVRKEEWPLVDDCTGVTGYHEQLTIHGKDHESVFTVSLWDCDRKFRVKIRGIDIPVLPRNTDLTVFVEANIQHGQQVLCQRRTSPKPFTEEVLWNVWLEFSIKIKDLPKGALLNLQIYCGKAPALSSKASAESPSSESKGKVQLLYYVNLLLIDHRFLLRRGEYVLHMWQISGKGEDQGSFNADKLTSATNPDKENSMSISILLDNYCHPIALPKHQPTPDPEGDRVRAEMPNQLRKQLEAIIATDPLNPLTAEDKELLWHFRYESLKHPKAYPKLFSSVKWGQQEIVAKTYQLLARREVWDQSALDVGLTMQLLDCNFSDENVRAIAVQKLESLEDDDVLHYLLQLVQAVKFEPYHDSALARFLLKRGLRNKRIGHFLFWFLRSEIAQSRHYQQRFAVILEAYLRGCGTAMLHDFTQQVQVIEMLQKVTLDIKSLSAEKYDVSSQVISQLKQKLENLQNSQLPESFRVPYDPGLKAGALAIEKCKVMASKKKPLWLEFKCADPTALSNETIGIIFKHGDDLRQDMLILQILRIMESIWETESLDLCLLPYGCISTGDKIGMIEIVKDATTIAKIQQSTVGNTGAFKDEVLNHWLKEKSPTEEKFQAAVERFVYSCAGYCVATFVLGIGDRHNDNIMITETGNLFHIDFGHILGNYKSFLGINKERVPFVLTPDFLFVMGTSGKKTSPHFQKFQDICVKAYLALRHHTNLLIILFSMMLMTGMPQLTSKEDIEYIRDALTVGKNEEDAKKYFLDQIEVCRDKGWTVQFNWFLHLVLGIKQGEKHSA
# Procedure, shortened: as §1
# [5] = biological target: T4, PI3Kα (Homo sapiens, UniProt P42336); assay: PI3 Kinase HTRF assay, PI3Kα; assay type: biochemical; details: 10 μM PIP2, 10 μM ATP; read-out: PI3K α IC50
# T4 construct: purchased Millipore Corporation 14-602-K
# T4 sequence (P42336 whole entry): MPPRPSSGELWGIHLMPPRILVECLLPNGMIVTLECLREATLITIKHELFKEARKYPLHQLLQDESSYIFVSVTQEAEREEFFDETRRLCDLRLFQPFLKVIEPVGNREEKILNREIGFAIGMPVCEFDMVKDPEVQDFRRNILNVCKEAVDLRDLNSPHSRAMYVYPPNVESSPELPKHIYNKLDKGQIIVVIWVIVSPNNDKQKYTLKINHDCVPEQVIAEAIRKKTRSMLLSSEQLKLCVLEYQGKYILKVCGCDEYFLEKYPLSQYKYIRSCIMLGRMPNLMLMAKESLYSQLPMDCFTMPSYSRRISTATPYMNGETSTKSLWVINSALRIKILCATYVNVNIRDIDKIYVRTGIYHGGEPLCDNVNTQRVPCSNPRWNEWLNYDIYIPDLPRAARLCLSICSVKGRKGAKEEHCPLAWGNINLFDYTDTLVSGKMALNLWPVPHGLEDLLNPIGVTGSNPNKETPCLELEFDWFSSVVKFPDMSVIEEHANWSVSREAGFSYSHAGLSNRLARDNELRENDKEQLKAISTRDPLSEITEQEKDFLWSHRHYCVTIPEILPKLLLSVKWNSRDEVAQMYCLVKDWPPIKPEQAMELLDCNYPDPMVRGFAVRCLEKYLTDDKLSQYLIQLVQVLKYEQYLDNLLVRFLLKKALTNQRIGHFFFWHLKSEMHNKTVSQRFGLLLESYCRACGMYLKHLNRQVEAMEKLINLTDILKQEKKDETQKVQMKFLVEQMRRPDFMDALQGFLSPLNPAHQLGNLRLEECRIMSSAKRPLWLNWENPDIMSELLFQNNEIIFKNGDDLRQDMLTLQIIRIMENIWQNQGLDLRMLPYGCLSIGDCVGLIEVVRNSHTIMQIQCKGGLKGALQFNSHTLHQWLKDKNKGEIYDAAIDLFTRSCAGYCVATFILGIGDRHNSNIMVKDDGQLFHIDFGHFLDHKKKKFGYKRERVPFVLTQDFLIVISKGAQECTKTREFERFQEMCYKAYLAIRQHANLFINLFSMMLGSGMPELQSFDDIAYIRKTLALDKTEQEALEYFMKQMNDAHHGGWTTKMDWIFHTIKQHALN
# T4 sequence (P27986 whole entry partner): as the sequence (P27986 whole entry partner) above
# Procedure, shortened: as §1
# [6] = system: lupus symptoms; details: B6.Sle1z.Sle3z model; cited from earlier work
# [7] = PBS pH 7.4, 37° C., 24 hours, 5 μM; cited from earlier work
# [8] = control or reference compounds, 5 μM; cited from earlier work
# T1 sequence (P42338 whole entry): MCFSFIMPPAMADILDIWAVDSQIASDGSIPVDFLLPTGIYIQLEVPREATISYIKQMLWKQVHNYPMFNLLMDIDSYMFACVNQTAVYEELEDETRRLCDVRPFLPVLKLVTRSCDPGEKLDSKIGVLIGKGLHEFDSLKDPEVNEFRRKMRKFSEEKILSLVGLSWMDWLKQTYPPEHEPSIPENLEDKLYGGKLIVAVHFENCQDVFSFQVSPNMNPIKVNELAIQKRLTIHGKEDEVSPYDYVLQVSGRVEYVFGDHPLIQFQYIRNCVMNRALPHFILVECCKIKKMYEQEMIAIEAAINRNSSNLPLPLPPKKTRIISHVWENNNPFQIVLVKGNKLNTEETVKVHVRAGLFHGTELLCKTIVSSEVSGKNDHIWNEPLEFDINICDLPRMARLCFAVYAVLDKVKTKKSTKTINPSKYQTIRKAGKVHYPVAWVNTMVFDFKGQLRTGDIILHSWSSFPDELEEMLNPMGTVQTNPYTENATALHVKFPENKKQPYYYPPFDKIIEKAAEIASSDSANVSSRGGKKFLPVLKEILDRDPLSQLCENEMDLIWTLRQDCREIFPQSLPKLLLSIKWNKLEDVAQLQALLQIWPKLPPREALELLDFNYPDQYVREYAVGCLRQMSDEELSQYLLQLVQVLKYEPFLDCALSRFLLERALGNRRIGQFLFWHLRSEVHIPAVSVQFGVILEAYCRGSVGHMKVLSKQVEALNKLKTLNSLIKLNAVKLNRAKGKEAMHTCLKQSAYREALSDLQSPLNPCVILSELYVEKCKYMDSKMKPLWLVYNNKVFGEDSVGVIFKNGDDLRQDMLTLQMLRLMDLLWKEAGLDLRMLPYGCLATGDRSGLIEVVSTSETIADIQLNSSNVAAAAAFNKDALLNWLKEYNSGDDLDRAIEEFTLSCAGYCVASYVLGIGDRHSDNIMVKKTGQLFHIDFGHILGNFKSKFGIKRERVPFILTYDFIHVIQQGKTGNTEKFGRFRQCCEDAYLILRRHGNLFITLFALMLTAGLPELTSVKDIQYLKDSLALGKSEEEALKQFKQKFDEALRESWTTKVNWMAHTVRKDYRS
# T1 sequence (P27986 whole entry partner): as the sequence (P27986 whole entry partner) above
Compound,IC50 [1],IC50 [2],IC50 [3],IC50 [4],IC50 [5],lupus symptoms [6],chemical stability [7],plasma stability [8]
C[C@H](Nc1ccnn2ccnc12)c1cc2cccc(Cl)c2c(OCCN2CCCC2)n1 [Compound 182],> 10000 nM,< 1000 nM,< 100 nM,> 10000 nM,> 10000 nM,–,–,–
C[C@H](Nc1ncnc2[nH]cnc12)c1cc2cccc(-c3cnn(C)c3)c2c(C(=O)N2CCOCC2)n1 [Compound 185],> 10000 nM,< 100 nM,< 100 nM,< 10000 nM,> 10000 nM,–,–,–
C[C@H](Nc1ccnn2ccnc12)c1cc2cccc(Cl)c2c(C(=O)N2CCOCC2)n1 [Compound 188],< 1000 nM,< 100 nM,< 100 nM,< 1000 nM,< 10000 nM,–,–,–
C[C@H](Nc1ccnn2ccnc12)c1cc2cccc(Cl)c2c(C(=O)N2C3CCC2COC3)n1 [Compound 189],< 10000 nM,< 100 nM,< 100 nM,< 10000 nM,> 10000 nM,–,–,–
C[C@H](Nc1ncnc2[nH]cnc12)c1cc2cccc(-c3cccnc3)c2c(Cl)n1 [Compound 192],> 10000 nM,< 1000 nM,< 100 nM,< 1000 nM,> 10000 nM,–,–,–
C[C@H](Nc1ncnc2[nH]cc(C(N)=O)c12)c1cc2cccc(Cl)c2c(C(=O)N2CCOCC2)n1 [Compound 204],< 10000 nM,< 100 nM,< 100 nM,< 100 nM,< 10000 nM,–,–,–
C[C@H](Nc1ncnc2[nH]cc(C(N)=O)c12)c1cc2cccc(Cl)c2c(C(=O)N2C3CCC2COC3)n1 [Compound 207],< 10000 nM,< 100 nM,< 100 nM,< 100 nM,< 10000 nM,–,–,–
C[C@H](Nc1ncnc2[nH]cc(F)c12)c1cc2cccc(Cl)c2c(C(=O)N2C3CCC2COC3)n1 [Compound 208],< 10000 nM,< 100 nM,< 100 nM,< 1000 nM,< 10000 nM,–,–,–
CCN1CCC(NC(=O)c2nc([C@H](C)Nc3ncnc4scnc34)cc3cccc(Cl)c23)CC1 [Compound 212],< 10000 nM,< 100 nM,< 100 nM,< 10000 nM,< 10000 nM,–,–,–
C[C@H](Nc1ncnc2scnc12)c1cc2cccc(Cl)c2c(C(=O)NC2CCCC2)n1 [Compound 213],> 10000 nM,< 100 nM,< 100 nM,< 10000 nM,< 10000 nM,–,–,–
C[C@H](Nc1ncnc2scnc12)c1cc2cccc(Cl)c2c(C(=O)NC2CCC(O)CC2)n1 (stereo partly drawn) [Compound 214],> 10000 nM,< 100 nM,< 100 nM,< 10000 nM,< 10000 nM,–,–,–
C[C@H](Nc1ncnc2scnc12)c1cc2cccc(Cl)c2c(C(=O)N2CCS(=O)(=O)CC2)n1 [Compound 220],< 10000 nM,< 100 nM,< 100 nM,< 1000 nM,> 10000 nM,–,–,–
C[C@H](Nc1ncnc2scnc12)c1cc2cccc(Cl)c2c(C(=O)N2CCC(F)(F)CC2)n1 [Compound 228],< 10000 nM,< 100 nM,< 100 nM,< 10000 nM,< 10000 nM,–,–,–
C[C@H](Nc1ncnc2scnc12)c1cc2cccc(Cl)c2c(C(=O)N2CCOC[C@@H]2C)n1 [Compound 232],< 10000 nM,< 100 nM,< 100 nM,< 10000 nM,< 10000 nM,–,–,–
C[C@H](Nc1ncnc2scnc12)c1cc2cccc(Cl)c2c(C(=O)N2CCC(O)CC2)n1 [Compound 234],< 10000 nM,< 100 nM,< 100 nM,< 10000 nM,< 10000 nM,–,–,–
C[C@H](Nc1nc(N)nc2cccnc12)c1cc2cccc(Cl)c2c(C(=O)N2CCOCC2)n1 [Compound 238],< 10000 nM,< 100 nM,< 100 nM,< 100 nM,> 10000 nM,–,–,–
C[C@H](Nc1ncnc2[nH]cnc12)c1cc2cccc(Cl)c2c(-c2cc(CO)on2)n1 [Compound 242],< 1000 nM,< 100 nM,< 100 nM,< 1000 nM,< 10000 nM,–,–,–
C[C@H](Nc1ncnc2cccnc12)c1cc2ccccc2c(C(=O)N2CCOCC2)n1 [Compound 247],> 10000 nM,< 1000 nM,< 100 nM,> 10000 nM,> 10000 nM,–,–,–
C[C@H](Nc1ncnc2cccnc12)c1cc2cccc(Cl)c2c(C(=O)N2CCOC[C@@H]2C)n1 [Compound 248],< 10000 nM,< 100 nM,< 100 nM,< 1000 nM,< 10000 nM,–,–,–
"CO[C@H]1C[C@@H]2CC[C@@H](C)[C@@](O)(O2)C(=O)C(=O)N2CCCC[C@H]2C(=O)O[C@H]([C@H](C)C[C@@H]2CC[C@@H](OCCO)[C@H](OC)C2)CC(=O)[C@H](C)/C=C(\C)[C@@H](O)[C@@H](OC)C(=O)[C@H](C)C[C@H](C)/C=C/C=C/C=C/1C [RAD001, everolimus]",–,–,–,–,–,ameliorate lupus symptoms,–,–
O=C(O)CCCc1ccc(N(CCCl)CCCl)cc1 [chlorambucil],–,–,–,–,–,–,largely hydrolyzed over the course of 24 hours,–
CC(C)[N+](C)(CCOC(=O)C1c2ccccc2Oc2ccccc21)C(C)C [propantheline],–,–,–,–,–,–,–,intermediate plasma stability
CCCOc1cc(N)ccc1C(=O)OCCN(CC)CC [propoxycaine],–,–,–,–,–,–,–,low plasma stability
